Consider 29 compounds from US20100144733A1, “Compounds, compositions and methods comprising heteroaromatic derivatives” (Institute for OneWorld Health, priority 2008, published 2010).

Assay [1] deals with cholera toxin (CTX) induced net fluid secretion in intestinal loops. Kind of assay: animal or person. Format: in vivo, mice (CD1 strain). The conditions noted are these: 4 hours.
In a further assay the target is T1, CFTR (Homo sapiens, UniProt P13569).
T1 construct: endogenous in cells; host or cells: T84 human colonic cells (ECACC)
T1 sequence (P13569 whole entry): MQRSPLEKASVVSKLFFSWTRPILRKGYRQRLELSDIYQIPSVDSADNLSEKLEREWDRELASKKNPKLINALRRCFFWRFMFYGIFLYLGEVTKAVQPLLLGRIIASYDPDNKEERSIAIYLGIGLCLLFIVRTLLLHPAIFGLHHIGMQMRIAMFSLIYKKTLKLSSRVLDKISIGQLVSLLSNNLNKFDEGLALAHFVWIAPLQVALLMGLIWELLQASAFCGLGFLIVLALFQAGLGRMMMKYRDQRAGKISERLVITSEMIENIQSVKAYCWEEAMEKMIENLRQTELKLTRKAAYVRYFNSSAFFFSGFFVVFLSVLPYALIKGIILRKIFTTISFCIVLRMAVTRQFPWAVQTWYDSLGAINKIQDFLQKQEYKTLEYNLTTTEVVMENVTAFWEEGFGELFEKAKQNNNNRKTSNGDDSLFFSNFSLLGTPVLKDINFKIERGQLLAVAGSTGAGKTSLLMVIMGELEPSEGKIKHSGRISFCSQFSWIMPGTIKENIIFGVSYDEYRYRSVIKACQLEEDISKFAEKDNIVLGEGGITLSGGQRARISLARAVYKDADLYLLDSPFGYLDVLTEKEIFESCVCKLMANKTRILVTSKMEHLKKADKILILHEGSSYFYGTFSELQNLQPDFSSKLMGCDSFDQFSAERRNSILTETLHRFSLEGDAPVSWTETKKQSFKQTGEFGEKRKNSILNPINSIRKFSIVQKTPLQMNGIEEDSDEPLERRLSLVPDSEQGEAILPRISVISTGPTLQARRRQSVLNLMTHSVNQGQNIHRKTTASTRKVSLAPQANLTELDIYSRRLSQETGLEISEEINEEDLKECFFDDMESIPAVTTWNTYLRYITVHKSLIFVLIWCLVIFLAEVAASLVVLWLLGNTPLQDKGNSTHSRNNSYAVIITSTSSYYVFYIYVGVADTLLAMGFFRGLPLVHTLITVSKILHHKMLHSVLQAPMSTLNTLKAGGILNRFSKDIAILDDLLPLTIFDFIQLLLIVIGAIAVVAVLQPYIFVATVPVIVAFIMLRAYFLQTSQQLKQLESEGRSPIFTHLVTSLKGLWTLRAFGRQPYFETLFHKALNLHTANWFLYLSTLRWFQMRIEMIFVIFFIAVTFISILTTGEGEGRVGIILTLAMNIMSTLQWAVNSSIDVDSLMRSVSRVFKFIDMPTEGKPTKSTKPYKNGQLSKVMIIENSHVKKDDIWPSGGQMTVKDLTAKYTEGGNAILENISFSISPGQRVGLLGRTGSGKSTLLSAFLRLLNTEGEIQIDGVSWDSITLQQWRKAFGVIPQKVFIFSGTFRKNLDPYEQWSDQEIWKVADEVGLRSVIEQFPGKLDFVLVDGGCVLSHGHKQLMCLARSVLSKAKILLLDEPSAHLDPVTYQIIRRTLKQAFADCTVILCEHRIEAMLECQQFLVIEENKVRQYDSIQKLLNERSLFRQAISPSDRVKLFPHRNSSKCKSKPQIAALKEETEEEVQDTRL
As to the kind of experiment: T84 assay (FLIPR membrane potential dye, forskolin/IBMX-stimulated CFTR channel activity). It counts as cell-based. Conditions: imidazole and triazole-containing compounds (Tables 13, 14, 14′), read-out: IC50 (μM) (T84 assay). The method, boiled down: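 Fluorescence from a membrane potential dye in T84 monolayers (HBSS with 10 mM Hepes) is followed each second for 150 s. Cells are exposed to test compound during the 45 min dye loading, then challenged with forskolin (10 μM) and IBMX (100 μM) to open CFTR. Inhibitors suppress the depolarization-driven fluorescence increase.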

The target of a further assay is T2, CHO-CFTR cell line (Homo sapiens, UniProt P13569).
T2 construct: expressed in transfected cells; host or cells: CHO (CHO-CFTR cell line)
T2 sequence (P13569 whole entry): as above
Kind of assay: CHO-CFTR assay (FLIPR assay, same conditions as the T84 assay). It counts as cell-based. The conditions noted are these: imidazole and triazole-containing compounds.

Consider `Oc1c(Br)cc(-c2cnc(COc3cccc(Cl)c3Cl)nn2)cc1Br` [30e, 2,6-dibromo-4(3-((2,3-dichlorophenoxy)methyl)-1,2,4-triazin-6-yl)phenol], for which the “closed loop % inhibition @ 100 μg” value in assay [1] came out at 94.4%.
On to `CCN(Cc1ccccc1)c1ccc(-c2cc(Cl)c(O)c(Cl)c2)nn1` [115f, 4-(6-(benzyl(ethyl)amino)pyridazin-3-yl)-2,6-dichlorophenol], for which the “closed loop % inhibition @ 100 μg” value in assay [1] is 79.4%.
In the case of `O=C(NCC(c1ccccc1)c1ccccc1)c1ncn(-c2cc(Cl)c(O)c(Cl)c2)n1` [44i, 1-(3,5-dichloro-4-hydroxyphenyl)-N-(2,2-diphenylethyl)-1H-1,2,4-triazole-3-carboxamide], the figures for the concentration for half-maximal inhibition (IC50) on CFTR and against CHO-CFTR cell line were 2.8 µM and 23.2 µM, respectively.
Taken in the same sequence, the figures for `CN(C)c1ccc(Oc2ccc(CNC(=O)c3ncn(-c4cc(Cl)c(O)c(Cl)c4)n3)cc2)cc1` [63i, 1-(3,5-dichloro-4-hydroxyphenyl)-N-(4-(4-(dimethylamino)phenoxy)benzyl)-1H-1,2,4-triazole-3-carboxamide] were 3.02 µM and 6.72 µM.
As to `CCON(Cc1ccc(Oc2ccccc2)cc1)C(=O)c1ncn(-c2cc(Cl)c(O)c(Cl)c2)n1` [130i, 1-(3,5-dichloro-4-hydroxyphenyl)-N-ethoxy-N-(4-phenoxybenzyl)-1H-1,2,4-triazole-3-carboxamide], the figures for the IC50 on CFTR and on CHO-CFTR cell line were 2.84 µM and 4.09 µM, respectively.
`CC(C)(C)CCN(Cc1cccnc1)C(=O)c1ncn(-c2cc(Cl)c(O)c(Cl)c2)n1` [78i, 1-(3,5-dichloro-4-hydroxyphenyl)-N-(3,3-dimethylbutyl)-N-(pyridin-3-ylmethyl)-1H-1,2,4-triazole-3-carboxamide]: the IC50 is 11.4 µM on CFTR and 13.7 µM against CHO-CFTR cell line.
With `CCN(Cc1cccc(OC(F)(F)F)c1)C(=O)c1ncn(-c2cc(Cl)c(O)c(Cl)c2)n1` [89i, 1-(3,5-dichloro-4-hydroxyphenyl)-N-ethyl-N-(3-(trifluoromethoxy)benzyl)-1H-1,2,4-triazole-3-carboxamide], the IC50 on CFTR came to 3.34 µM; against CHO-CFTR cell line, 24.6 µM.
Take `O=C(NCc1cc(C(F)(F)F)ccc1F)c1ncn(-c2cc(Cl)c(O)c(Cl)c2)n1` [40i, 1-(3,5-dichloro-4-hydroxyphenyl)-N-(2-fluoro-5-(trifluoromethyl)benzyl)-1H-1,2,4-triazole-3-carboxamide]: the 50% inhibitory concentration (IC50) on CFTR stood at 2.86 µM; against CHO-CFTR cell line, 28.6 µM.
Turning to `O=C(c1ncn(-c2cc(Cl)c(O)c(Cl)c2)n1)N(Cc1cccnc1)Cc1cccc(OC(F)(F)F)c1` [110i, 1-(3,5-dichloro-4-hydroxyphenyl)-N-(pyridin-3-ylmethyl)-N-(3-(trifluoromethoxy)benzyl)-1H-1,2,4-triazole-3-carboxamide], the IC50 at CFTR was 4.48 µM; against CHO-CFTR cell line it was 7.8 µM.
In the case of `CC(C)N(Cc1ccc(Oc2ccccc2)cc1)C(=O)c1ncn(-c2cc(Cl)c(O)c(Cl)c2)n1` [95i, 1-(3,5-dichloro-4-hydroxyphenyl)-N-isopropyl-N-(4-phenoxybenzyl)-1H-1,2,4-triazole-3-carboxamide], the values for the half-inhibitory concentration (IC50) at CFTR and at CHO-CFTR cell line were 2.63 µM and 18.9 µM, respectively.
Take `O=C(NCc1ccc(Oc2cc(F)c(F)c(F)c2)cc1)c1ncn(-c2cc(Cl)c(O)c(Cl)c2)n1` [65i, 1-(3,5-dichloro-4-hydroxyphenyl)-N-(4-(3,4,5-trifluorophenoxy)benzyl)-1H-1,2,4-triazole-3-carboxamide]: the IC50 on CFTR turned out to be 5.83 µM; against CHO-CFTR cell line it was 0.86 µM.
In the same order, the values of `O=C(NCc1cccc(OC(F)(F)F)c1)c1ncn(-c2cc(Cl)c(O)c(Cl)c2)n1` [3i, 1-(3,5-dichloro-4-hydroxyphenyl)-N-(3-(trifluoromethoxy)benzyl)-1H-1,2,4-triazole-3-carboxamide] are 7.14 µM and 3.37 µM.
Turning to `O=C(NCc1cc(Cl)cc(Cl)c1)c1ncn(-c2cc(Cl)c(O)c(Cl)c2)n1` [36i, 1-(3,5-dichloro-4-hydroxyphenyl)-N-(3,5-dichlorobenzyl)-1H-1,2,4-triazole-3-carboxamide], the IC50 at CFTR amounted to 3.7 µM; against CHO-CFTR cell line, 13.7 µM.
`COCCOCCOCCOCCN(Cc1ccc(Oc2ccccc2)cc1)C(=O)c1ncn(-c2cc(Cl)c(O)c(Cl)c2)n1` [112i, 1-(3,5-dichloro-4-hydroxyphenyl)-N-(4-phenoxybenzyl)-N-(2,5,8,11-tetraoxatridecan-13-yl)-1H-1,2,4-triazole-3-carboxamide]: the IC50 on CFTR is 12.5 µM; on CHO-CFTR cell line it was 26.1 µM.
Turning to `CON(Cc1ccc(C(C)(C)C)cc1)C(=O)c1ncn(-c2cc(Cl)c(O)c(Cl)c2)n1` [127i, N-(4-tert-butylbenzyl)-1-(3,5-dichloro-4-hydroxyphenyl)-N-methoxy-1H-1,2,4-triazole-3-carboxamide], the IC50 at CFTR was determined as 1.49 µM; against CHO-CFTR cell line, 32.9 µM.
As to `CC(C)c1ccc(CN(Cc2cccnc2)C(=O)c2ncn(-c3cc(Cl)c(O)c(Cl)c3)n2)cc1` [92i, 1-(3,5-dichloro-4-hydroxyphenyl)-N-(4-isopropylbenzyl)-N-(pyridin-3-ylmethyl)-1H-1,2,4-triazole-3-carboxamide], the IC50 came out at 1.47 µM on CFTR and 8.57 µM against CHO-CFTR cell line.
As to `O=C(c1ncn(-c2cc(Cl)c(O)c(Cl)c2)n1)N(Cc1ccccc1)Cc1ccc(Cl)c(Cl)c1` [83i, N-benzyl-1-(3,5-dichloro-4-hydroxyphenyl)-N-(3,4-dichlorobenzyl)-1H-1,2,4-triazole-3-carboxamide], the values for the IC50 at CFTR and at CHO-CFTR cell line were 3.22 µM and 14.3 µM, respectively.
In the case of `Oc1c(Cl)cc(-n2cnc(C(O)(c3cccc(F)c3)c3cccc(F)c3)n2)cc1Cl` [54i, 4-(3-(bis(3-fluorophenyl)(hydroxy)methyl)-1H-1,2,4-triazol-1-yl)-2,6-dichlorophenol], the IC50 at CFTR came to 22.9 µM; against CHO-CFTR cell line it was 22.7 µM.
`O=C(NCc1cc(F)cc(C(F)(F)F)c1)c1ncn(-c2cc(Cl)c(O)c(Cl)c2)n1` [24i, 1-(3,5-dichloro-4-hydroxyphenyl)-N-(3-fluoro-5-(trifluoromethyl)benzyl)-1H-1,2,4-triazole-3-carboxamide]: the half-inhibitory concentration (IC50) worked out at 4.93 µM on CFTR and 15.2 µM on CHO-CFTR cell line.
Take `CCN(Cc1ccc(C(C)C)cc1)C(=O)c1ncn(-c2cc(Cl)c(O)c(Cl)c2)n1` [87i, 1-(3,5-dichloro-4-hydroxyphenyl)-N-ethyl-N-(4-isopropylbenzyl)-1H-1,2,4-triazole-3-carboxamide]: the IC50 worked out at 1.23 µM at CFTR and 20.6 µM on CHO-CFTR cell line.
Consider `CC(C)c1ccc(CC(NC(=O)c2ncn(-c3cc(Cl)c(O)c(Cl)c3)n2)C(=O)C(C)(C)C)cc1` (centres unmarked) [134i, 1-(3,5-dichloro-4-hydroxyphenyl)-N-(1-(4-isopropylphenyl)-4,4-dimethyl-3-oxopentan-2-yl)-1H-1,2,4-triazole-3-carboxamide], for which the 50% inhibitory concentration (IC50) on CFTR was 3.09 µM; at CHO-CFTR cell line it was 8.6 µM.
In the same order, the values of `Oc1c(Cl)cc(-n2cnc(C(O)(c3cc(F)cc(Cl)c3)c3cc(F)cc(Cl)c3)n2)cc1Cl` [57i, 4-(3-(bis(3-chloro-5-fluorophenyl)(hydroxy)methyl)-1H-1,2,4-triazol-1-yl)-2,6-dichlorophenol] are 14.7 µM and 3.88 µM.
Turning to `COCCOCCOCCN(Cc1ccc(Oc2ccccc2)cc1)C(=O)c1ncn(-c2cc(Cl)c(O)c(Cl)c2)n1` [119i, 1-(3,5-dichloro-4-hydroxyphenyl)-N-(2-(2-(2-methoxyethoxy)ethoxy)ethyl)-N-(4-phenoxybenzyl)-1H-1,2,4-triazole-3-carboxamide], the results for the IC50 on CFTR and on CHO-CFTR cell line were 5.11 µM and 11.5 µM, respectively.
As to `CON(Cc1cccc(C(F)(F)F)c1)C(=O)c1ncn(-c2cc(Cl)c(O)c(Cl)c2)n1` [124i, 1-(3,5-dichloro-4-hydroxyphenyl)-N-methoxy-N-(3-(trifluoromethyl)benzyl)-1H-1,2,4-triazole-3-carboxamide], the half-inhibitory concentration (IC50) on CFTR turned out to be 8.22 µM; on CHO-CFTR cell line, 6.03 µM.
Take `CC(C)(C)CCN(Cc1ccccc1)C(=O)c1ncn(-c2cc(Cl)c(O)c(Cl)c2)n1` [60i, N-Benzyl-1-(3,5-dichloro-4-hydroxyphenyl)-N-(3,3-dimethylbutyl)-1H-1,2,4-triazole-3-carboxamide]: the concentration for half-maximal inhibition (IC50) on CFTR is 16.2 µM; at CHO-CFTR cell line, 5.45 µM.
Consider `O=C(c1ncn(-c2cc(Cl)c(O)c(Cl)c2)n1)N(Cc1ccccc1)Cc1cccnc1` [75i, N-benzyl-1-(3,5-dichloro-4-hydroxyphenyl)-N-(pyridin-3-ylmethyl)-1H-1,2,4-triazole-3-carboxamide], for which the figures for the half-inhibitory concentration (IC50) on CFTR and on CHO-CFTR cell line were 15.6 µM and 40.1 µM, respectively.
In the same order, the values of `CC(C)(C)C(=O)C(Cc1cccc(OC(F)(F)F)c1)NC(=O)c1ncn(-c2cc(Cl)c(O)c(Cl)c2)n1` (centres unmarked) [133i, 1-(3,5-dichloro-4-hydroxyphenyl)-N-(4,4-dimethyl-3-oxo-1-(3-(trifluoromethoxy)phenyl)pentan-2-yl)-1H-1,2,4-triazole-3-carboxamide] are 1.23 µM and 21 µM.
Turning to `O=C(NCc1ccc(Oc2cccc(N3CCCC3)c2)cc1)c1ncn(-c2cc(Cl)c(O)c(Cl)c2)n1` [69i, 1-(3,5-dichloro-4-hydroxyphenyl)-N-(4-(3-(pyrrolidin-1-yl)phenoxy)benzyl)-1H-1,2,4-triazole-3-carboxamide], the IC50 stood at 4.3 µM on CFTR and 5.99 µM on CHO-CFTR cell line.
Turning to `CC(C)(C)c1ccc(C(O)(c2ccc(C(C)(C)C)cc2)c2ncn(-c3cc(Cl)c(O)c(Cl)c3)n2)cc1` [58i, 4-(3-(bis(4-tert-butylphenyl)(hydroxy)methyl)-1H-1,2,4-triazol-1-yl)-2,6-dichlorophenol], the half-inhibitory concentration (IC50) worked out at 11.3 µM at CFTR and 17 µM on CHO-CFTR cell line.

What is called IC50 is the concentration that inhibits the measured activity by half.
